Columns and labels:
[1] = system: populus hybrid strain Y63 stem sections; test: populus hybrid gene introduction test, vector pIAH6, adventitious bud redifferentiation and multiple bud observation; type: cell-based, Populus sieboldii×Populus grandidentata; conditions: for B Adventitious bud differentiated (number of sections): 10 sections tested; for B/A Redifferentiation ratio / C/A Gene introduction ratio / C/B Selection efficiency: section basis; for number of redifferentiated adventitious buds into which the desired gene was introduced / total number of adventitious buds redifferentiated: bud basis; for C GUS + adventitious bud differentiated (number of sections): sections with bud judged as a multiple bud after culturing for 4 months
Procedure: A transformant was produced by carrying out gene introduction into a populus hybrid (Populus sieboldii×Populus grandidentata) by the method of the present invention using the pIAH6 used in Example 1 as the vector. A stem of an aseptic seedling of a populus hybrid strain […] That is, the pIAH6-introduced A. tumefaciens LBA4404 obtained in the same manner as in Example 1 was cultured overnight in the YEB liquid medium and then diluted to OD630=0.5 with Y basal medium, and the stem sections prepared in the above were soaked in this cell suspension. Next, each of these sections after removing excess cell suspension was co-cultured with Agrobacterium on an agar medium (agar 8 g/l) prepared by adding 40 mg/l acetosyringone to the Y basal medium, at 25° C. for 3 days in the dark to thereby be infect with the pIAH6-introduced Agrobacterium. In this case, a modified MS medium (10 mM NH4, 30 mM NO3) was supplemented with 20 g/l sucrose and used as the Y basal medium. The sections after infection culturing were put on the Y basal agar medium (agar 8 g/l) supplemented with 500 mg/l ticarcillin and 1 μM, 5 μM or 30 μM of an auxin precursor analogue NAM, followed by culturing at 25° C. under light conditions of 30 to 40 μmol/m^2/s in light intensity. […] That is, since the ipt gene is not introduced into the escape, the adventitious bud was redifferentiated by mere influence of a desired gene-introduced cell which was present adjacent thereto.

[2] = system: stem sections of a high rooting clone of E. globulus; test: gene introduction test on high rooting clone of E. globulus, vector pIAH6, GUS staining; type: cell-based, Eucalyptus globulus; conditions: NAM 1 μM
Procedure: (§1) Definite buds of a high rooting clone of E. globulus from Chile were aseptically grown using a medium prepared by adding 0.5 mg/l zeatin to the Y basal medium of Example 2, and the elongated stems were cut into sections of 5 mm to be used as samples for gene introduction and infected with the plasmid pIAH6-introduced Agrobacterium in the same manner as in Example 1. The sections after infection culturing were put on an EG basal agar medium (agar 8.5 g/l) supplemented with 500 mg/l ticarcillin and 1 μM of an auxin precursor analogue NAM, and the culturing was continued at 25° C. under light conditions of 30 to 40 μmol/m^2/s in light intensity while sub-culturing at an interval of 2 weeks using the same medium. Four months after the Agrobacterium infection, the redifferentiated adventitious buds were subjected to a GUS staining test in accordance with the above method of Jefferson et al., and the degree of formation of desired gene-introduced adventitious buds was judged.

[3] = system: stem sections of a high rooting clone of E. globulus; test: gene introduction test on high rooting clone of E. globulus, vector pIPT10; type: cell-based, Eucalyptus globulus; conditions: same manner as Example 3 (NAM 1 μM)
Procedure: as §1, with “judged. Using plasmid pIPT10 as the vector, a gene introduction test was carried out into a high rooting clone of E. globulus in the same manner as in Example 3.” for “judged.”

SMILES: NC(=O)Cc1cccc2ccccc12 [NAM, naphthaleneacetic acid amide]
- B Adventitious bud differentiated (number of sections) ([1]; NAM 1 μM in medium): 7 number of sections
- B/A Redifferentiation ratio ([1]; NAM 1 μM in medium): 70.0%
- C/A Gene introduction ratio ([1]; NAM 1 μM in medium): 50.0%
- C/B Selection efficiency ([1]; NAM 1 μM in medium): 71.4%
- number of redifferentiated adventitious buds into which the desired gene was introduced ([1]; NAM 1 μM): 6
- total number of adventitious buds redifferentiated ([1]; NAM 1 μM): 67
- C GUS + adventitious bud differentiated (number of sections) ([1]; NAM 1 μM): 5 number of sections
- B Adventitious bud differentiated (number of sections) ([1]; NAM 5 μM in medium): 6 number of sections
- B/A Redifferentiation ratio ([1]; NAM 5 μM in medium): 60.0%
- C/A Gene introduction ratio ([1]; NAM 5 μM in medium): 40.0%
- C/B Selection efficiency ([1]; NAM 5 μM in medium): 66.7%
- number of redifferentiated adventitious buds into which the desired gene was introduced ([1]; NAM 5 μM): 5
- total number of adventitious buds redifferentiated ([1]; NAM 5 μM): 34
- C GUS + adventitious bud differentiated (number of sections) ([1]; NAM 5 μM): 4 number of sections
- B Adventitious bud differentiated (number of sections) ([1]; NAM 30 μM in medium): 0 number of sections
- B/A Redifferentiation ratio ([1]; NAM 30 μM in medium): 0%
- C/A Gene introduction ratio ([1]; NAM 30 μM in medium): 0%
- C/B Selection efficiency ([1]; NAM 30 μM in medium): 0%
- C GUS + adventitious bud differentiated (number of sections) ([1]; NAM 30 μM): 0 number of sections
- sections whose buds had the desired gene introduced (GUS staining) ([2]; among 40 stem sections): 3 sections
- sections from which adventitious buds were differentiated ([2]; among 40 stem sections, 4 months after infection): 5 sections
- gene introduction ratio into adventitious buds ([2]; section basis): 7.5%
- redifferentiation ratio of adventitious buds ([2]; section basis): 12.5%
- selection efficiency ([2]; section basis): 60.0%
- redifferentiated individuals into which the desired gene was introduced [3]: not obtained
- redifferentiation of adventitious buds [3]: not redifferentiated
